Laboratory results from patent EP0542837B1, “PROPYLAMINE DERIVATIVES” (NORGINE LIMITED, priority 1990, dated 1992).
Like-named read-outs stand apart in the source and are kept apart here.

Tested on: Guinea-pig ileum muscle
Experiment: Antispasmodic activity: reduction of the acetylcholine contraction of isolated ileum in a gut bath
Type: cell-based
Method: Antispasmodic activity was determined using standard methodology. (d) Guinea-pig ileum muscle was suspended in a gut bath, in oxygenated Tyrode's solution at 37°. Doses of acetylcholine were added to the gut bath fluid, the contraction recorded, and the bath washed out with fresh Tyrode's solution. This was carried out repeatedly to establish a dose of acetylcholine to cause a sub-maximal response. This dose of acetylcholine was used repeatedly, on a 2 minute cycle to establish steady responses. Doses of antispasmodic were then added 30 seconds before the acetylcholine dose to establish the magnitude of reduction of the acetylcholine contraction.

SMILES	equivalent amount for antispasmodic activity [ng]	equivalent amount for antispasmodic activity (equi-active amounts of the amine hydrochloride and atropine sulphate, acetylcholine contraction, oxygenated Tyrode's solution at 37°) [ng]	antispasmodic activity times less than the standard (relative to atropine sulphate as standard, acetylcholine contraction, oxygenated Tyrode's solution at 37°, antispasmodic added 30 seconds before the acetylcholine dose)
CN1C2CCC1CC(OC(=O)C(CO)c1ccccc1)C2 (racemic) [atropine sulphate, reference compound]	0.06	–	–
CCN(CCCc1ccccc1)CCCc1ccc(O)cc1 [compound (II), N-ethyl, N-(3-phenylpropyl), 3-(4-hydroxyphenyl)-propylamine]	–	1.5	approximately 25 times
